Laboratory results as given in PMC9310846, “Photoaffinity Capture Compounds to Profile the Magic Spot Nucleotide Interactomes” (Angewandte Chemie (International Ed. in English), 2022).

Assays:
[1] = molecular target: T1, ApaH (bis(5′‐nucleosyl)‐tetraphosphatase) (Escherichia coli, UniProt P05637); test: inhibition of Ap4A hydrolysis by ApaH; pGpp is also the product of pppGpp cleavage; format: biochemical
T1 sequence (P05637 1-280): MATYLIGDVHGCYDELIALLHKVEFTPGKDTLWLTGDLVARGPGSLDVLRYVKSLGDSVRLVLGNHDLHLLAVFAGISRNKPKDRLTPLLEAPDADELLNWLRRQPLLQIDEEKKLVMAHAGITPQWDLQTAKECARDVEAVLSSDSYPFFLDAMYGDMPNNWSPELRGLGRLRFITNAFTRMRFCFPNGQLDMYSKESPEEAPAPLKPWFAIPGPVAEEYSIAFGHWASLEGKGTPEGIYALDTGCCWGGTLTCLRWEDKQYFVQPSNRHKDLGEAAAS

[2] = molecular target: T1, ApaH (bis(5′‐nucleosyl)‐tetraphosphatase); test: LC-MS assay of Ap4A hydrolysis by […] ApaH; pppGpp is also hydrolysed to pGpp (KM […]); format: biochemical
[3] = molecular target: T1, ApaH (bis(5′‐nucleosyl)‐tetraphosphatase); test: LC-MS assay of Ap4A hydrolysis by […] ApaH; format: biochemical
purified protein = substrate: Nc1nc2c(ncn2[C@@H]2O[C@H](COP(=O)(O)OP(=O)(O)OP(=O)(O)O)[C@@H](O)[C@H]2O)c(=O)[nH]1; test: purified protein; format: biochemical, Escherichia coli; settings: Co2+

## Nc1nc2c(ncn2[C@@H]2O[C@H](COP(=O)(O)O)[C@@H](OP(=O)(O)OP(=O)(O)O)[C@H]2O)c(=O)[nH]1 [pGpp]
[1]
  IC50: 190 ± 30 µM

## Nc1nc2c(ncn2[C@@H]2O[C@H](COP(=O)(O)OP(=O)(O)OP(=O)(O)O)[C@@H](OP(=O)(O)OP(=O)(O)O)[C@H]2O)c(=O)[nH]1 [pppGpp]
[2]
  IC50: 8 ± 3 µM

## Nc1nc2c(ncn2[C@@H]2O[C@H](COP(=O)(O)OP(=O)(O)O)[C@@H](OP(=O)(O)OP(=O)(O)O)[C@H]2O)c(=O)[nH]1 [ppGpp]
[3]
  IC50: 21 ± 7 µM

B1: ApaH (bis(5′‐nucleosyl)‐tetraphosphatase) (Escherichia coli K-12) (protein)
chain: MATYLIGDVHGCYDELIALLHKVEFTPGKDTLWLTGDLVARGPGSLDVLRYVKSLGDSVRLVLGNHDLHLLAVFAGISRNKPKDRLTPLLEAPDADELLNWLRRQPLLQIDEEKKLVMAHAGITPQWDLQTAKECARDVEAVLSSDSYPFFLDAMYGDMPNNWSPELRGLGRLRFITNAFTRMRFCFPNGQLDMYSKESPEEAPAPLKPWFAIPGPVAEEYSIAFGHWASLEGKGTPEGIYALDTGCCWGGTLTCLRWEDKQYFVQPSNRHKDLGEAAAS
Purified protein
  Km: 13 ± 5 µM
